In patent US5200338A, “Bacterial extracellular lignin peroxidase” (Idaho Research Foundation, Incorporation, priority 1988, dated 1993):

How the values were obtained:
[1] = test system: partially purified peroxidase; experiment: Oxidation of lignin substructure model compounds by partially purified peroxidase; type: biochemical, Streptomyces viridosporus T7A; conditions: 0.02% (wt/vol) model compound, hydrogen peroxide, pH 5.5, 37° C., 18 hours
Protocol: The model compounds were added to reaction mixtures at a final concentration of 0.02% (wt/vol). Reactions were carried out in a total volume of 3.0 ml, containing 0.1 mM hydrogen peroxide or a peroxide generating system consisting of 0.02 units/ml of glucose oxidase (Sigma) and 3 mM glucose 0.1M sodium tartrate buffer (pH 5.5) and 300 μl of enzyme preparation. Control reactions were performed with boiled enzyme preparation. Some reaction mixtures were flushed with oxygen and all were incubated at 37° C. for 18 hours on a shaker in slanting tubes. The reaction mixtures were then acidified to pH 2-3 with 12M HCl and extracted once with ether and once with ethyl acetate. […]
HPLC was performed on a Hewlett-Packard 1090A high pressure liquid chromatograph employing a HP-1040A diode array detector. During each run, chromatograms for 258, 280, and 310 nm were recorded and the ultraviolet (UV) absorbance spectrum (250-350 nm) of each peak was recorded at its front side, apex, and trailing side. […]
Only veratraldehyde, anisaldehyde and vanillin were detected by HPLC, GC, and GC/MS. Guaiacol, formed in trace amounds, was detected by HPLC, GC, and GC/MS. Small amounts of products (IV) and (V) were detected only by MS fragmentation. […]

[2] = test system: Peroxidase P3
[3] = test system: Peroxidase P3; conditions: inhibitor at final concentration lmM

Oxidation of the model compound by the peroxidase (bond cleaved) [1]	SMILES	Inhibition of the enzyme (2,4-DCP and L-DOPA oxidizing activities), in words ([2]; 1 mM concentration)	% inhibition of peroxidase P3 activity, substrate 2,4,-DCP ([2]; inhibitor at final concentration lmM)	Specific activity, substrate 2,4,-DCP, with inhibitor ([2]; inhibitor at final concentration lmM, partially purified P3)	% inhibition of peroxidase P3 activity, substrate L-DOPA [3]	Specific activity, substrate L-DOPA, with inhibitor ([3]; partially purified P3)
cleaved between the Cαand Cβcarbons	COc1ccc(C(=O)Cc2ccccc2)cc1 [III, 1-(4-methoxyphenyl)-2-(phenyl)ethan-1-one]	–	–	–	–	–
cleaved at the Cα -Cβ bond	COc1ccc(C(O)C(CO)Oc2ccccc2OC)cc1OC (stereo not shown) [I, 1-(3,4-Dimethoxyphenyl)-2-(2-methoxyphenoxy)propane-1,3-diol]	–	–	–	–	–
–	[N-]=[N+]=[N-] [sodium azide]	inhibited	83%	0.18 Units/mg protein	41%	0.18 Units/mg protein
